The record followed here is article PMC5537696 (2017).

Molecules are shown by their SMILES.

Test [1] has as its system LLA (long loop ATP hairpin aptamer) (DNA, aptamer) CACCTGGGGGAGTATTGCGGAGGAAGGTTTTTTTTTTTTTTTTTTTTTTTTTTTTTTTTCCAGGTGTT
Kind of test: surface plasmon field-enhanced fluorescence titration. The conditions noted are these: 6 mM MgCl2; 10 mM Tris pH 7.4 (HAB); aptamer immobilised on gold; up to 12 mM guanosine.

The test system is the same in test [2]. Kind of test: surface plasmon field-enhanced fluorescence titration, Langmuir isotherm. To be noted: 6 mM MgCl2, 10 mM Tris pH 7.4 (HAB).
The subject of test [3] is SLA (short loop ATP hairpin aptamer) (DNA, aptamer, PEG6 spacer between 29 and 30) CACCTGGGGGAGTATTGCGGAGGAAGGTTCCAGGTG
The description is as above. The conditions noted are these: 6 mM MgCl2, 10 mM Tris pH 7.4 (HAB).

Setting [4] is: aptamer immobilised, fit limited to ATP ≤2 mM, full curve deviates from Langmuir.

`Nc1nc2c(ncn2[C@@H]2O[C@H](CO)[C@@H](O)[C@H]2O)c(=O)[nH]1`: in test [1], the binding result is “no”.
With `Nc1ncnc2c1ncn2[C@@H]1O[C@H](CO)[C@@H](O)[C@H]1O`, the values for the Kd in test [2] (aptamer immobilised on gold) and in test [3] (aptamer immobilised on gold) were 50 µM and 90 µM, respectively.
As to `Nc1ncnc2c1ncn2[C@@H]1O[C@H](COP(=O)(O)OP(=O)(O)OP(=O)(O)O)[C@@H](O)[C@H]1O`, the Kd in test [2] (setting [4]) is given as 120 µM; in test [3] (setting [4]) it was 300 µM.
